BindingDB's records for doi:10.1016/0960-894X(95)00399-E (1995)

Experiments:
[1] = target: Gastrin/cholecystokinin type B receptor (Cavia porcellus); assay: Binding affinity towards Cholecystokinin type B receptor was measured by displacement of [125I]CCK from guinea pig cortical membranes
[2] = target: Gastrin/cholecystokinin type B receptor (Cavia porcellus); assay: as above; remark: listed apart in the source

IC50 [1] [nM]	IC50 [2] [nM]	SMILES
1.4	–	CN1C(=O)C(NC(=O)Nc2cccc(C(=O)O)c2)N=C(C2CCCCC2)c2ccccc21 (stereo not drawn) [3-[3-(5-Cyclohexyl-1-methyl-2-oxo-2,3-dihydro-1H-benzo[e][1,4]diazepin-3-yl)-ureido]-benzoic acid]
0.36	–	CC(=O)NS(=O)(=O)c1cccc(NC(=O)NC2N=C(C3CCCCC3)c3ccccc3N(C)C2=O)c1 (stereo not drawn) [N-Acetyl-3-[3-(5-cyclohexyl-1-methyl-2-oxo-2,3-dihydro-1H-benzo[e][1,4]diazepin-3-yl)-ureido]-benzenesulfonamide]
–	0.73	CN1C(=O)[C@H](NC(=O)Nc2cccc(C(=O)NS(=O)(=O)c3ccccc3)c2)N=C(C2CCCCC2)c2ccccc21 [N-{3-[3-((R)-5-Cyclohexyl-1-methyl-2-oxo-2,3-dihydro-1H-benzo[e][1,4]diazepin-3-yl)-ureido]-benzoyl}-benzenesulfonamide]
